From PMC10470313, “Developing a peptide to disrupt cohesin head domain interactions” (iScience, 2023)
Where no end group is shown, it is not given here.

What was measured:
[1] = tested on: Smc3-GFP (cohesin holocomplex) in yeast protein extract; assay: Microscale thermophoresis (MST) binding in yeast cell extract; conditions: 10 μM CIP3-TAT (Fig S3; method b75: 5 μM), extract of yAM-945 strain, MST binding mode, no binding constants
Experimental: We validated the in vitro binding of CIP3 to Smc3 by exploring the formation of the complex in a yeast cell extract in which Smc3 was fused to GFP. Protein extract from the yAM-945 strain containing Smc3-GFP was supplemented with 10 μM CIP3-TAT and analyzed by microscale thermophoresis (MST) in binding mode. In this assay, the migration of a fluorescent protein in a microscale temperature gradient is monitored. Changes in the physical-chemical properties of the protein, induced by interaction with another protein or a small molecule, will change the migration properties of the protein. While biochemical constants of the binding cannot be determined under these conditions, as the concentration of Smc3-GFP in the extract is undetermined.
Yeast strain yAM-945 cells containing Smc3-GFP were grown in SD-URA galactose to mid-log phase. Cells were collected by centrifugation and washed with water. The cell pellet was resuspended in 350 μl of MST Buffer (NanoTemper) supplemented with 0.05% Tween-20 (Sigma). Glass beads were added, and cells were lyzed by 4 cycles of 1 minute in a bullet blender (next advance). The protein extract was clarified by centrifugation at 1000 g for 5 minutes. […] The formation of the CIP3-TAT and cohesin complex was analyzed by Monolith NT.115 (NanoTemper) in the binding mode that detects the formation of complexes without calculating the binding constants.

U2OS cells = assay: Mitosis time in U2OS cells (live-cell imaging); type: cell-based, human; conditions: 10 nM peptide, 20 h, images every 5 min
Experimental: CIP3 was derived from a highly conserved region of Smc1 (Figure 1D). Therefore, we sought to test its ability to affect cohesin activity in human cells. U2OS cells were diluted into a 96-well plate and grown for about 20 h. Added to this was 10 nM peptide and the cells were grown for another 20 h. Images of the cells were taken every 5 min (Figure 5A). We expected cohesion loss to result in a mitotic delay. We calculated mitosis time starting from the first image in which condensed mitotic chromosomes were visualized until their disappearance at mitosis exit. Strikingly, the average mitosis time in CIP3-TAT treated cells increased by about 10% (from 6 to 6.5 min), indicating a mitotic delay (Figure 5B).
Figure 5 CIP3 causes a mitotic delay in human cells U2OS cells were plated in a 96-well plate and grown for 20 h to allow adherence. […] Mitosis length was determined by counting the number of images in which mitotic chromosomes were visualized. […] (B) Quantitation of mitosis length in untreated and CIP3-TAT treated cells. At least 300 cells were counted for each condition. ∗∗∗p < 0.0001.
U2OS cells were maintained in Dulbecco's Modified Eagle Medium (DMEM) (Gibco) with 10% fetal bovine serum (FBS) (Corning), 2 mM l-glutamine (Gibco), 1% penicillin-streptomycin (Gibco), and 1 mM sodium pyruvate (Gibco), at 37°C, 5% CO2. […] The significance between conditions was determined by using Student's t-test.

## KRFKDMEYLSGGEKTGGYGRKKRRQRRR [CIP3-TAT]
[1]
  complex formation with Smc3-GFP/cohesin: supported the formation of the Smc3/CIP3 complex
U2OS cells; untreated: 6 min, at least 300 cells per condition
  average mitosis time: 6.5 min
U2OS cells; vs untreated
  increase of average mitosis time: about 10%
